In US5015631A, “Repairing agent for cells and tissues” (MECT Corporation, priority 1987, dated 1991):

Test system: mice
Experiment: Simple acute toxicity test by intravenous injection in mice
Format: in vivo, Male ddy mice
Settings: for Final death rate / Number of death with the elapse of time: 3 mice
Protocol: Simple acute toxicity test:
Simple acute toxicity tests of the materials were conducted by intraveous injections for the mice as follows:
Lithium, potassium, barium and magnesium N-acetylneuraminates (products of MECT Corporation) were used.
Weight of the animal in the initial stage of the test: 17.7 to 21.1 g
Number of mice for each level: 3
(3) Room temperature: 23±1° C., humidity: 55±7%
(4) Route of administration: intravenous injection
The material was dissolved in the physiological saline. The concentration of the dose solution was adjusted so that 0.2 ml of the dose solution was administered per 20 g of the body weight of the mice. The solution was given to a tail of each mouse by the intravenous injection. The dose was 500, 1000 or 2000 mg/kg.
The general symptoms and death were observed from immediately after the administration to seven days after the administration.

CC(=O)N[C@H]1[C@H]([C@H](O)[C@H](O)CO)OC(O)(C(=O)O)C[C@@H]1O (stereo partly shown) [Barium N-acetylneuraminate]
Final death rate (500 mg/kg i.v.): 3/3
Number of death with the elapse of time (500 mg/kg i.v., 1 hr): 3
Number of death with the elapse of time (500 mg/kg i.v., 3 hrs): 0
Number of death with the elapse of time (500 mg/kg i.v., 6 hrs): 0
Number of death with the elapse of time (500 mg/kg i.v., 24 hrs): 0
Number of death with the elapse of time (500 mg/kg i.v., 2 days): 0
Number of death with the elapse of time (500 mg/kg i.v., 3 days): 0
Number of death with the elapse of time (500 mg/kg i.v., 4 days): 0
Number of death with the elapse of time (500 mg/kg i.v., 5 days): 0
Number of death with the elapse of time (500 mg/kg i.v., 6 days): 0
Number of death with the elapse of time (500 mg/kg i.v., 7 days): 0
Number of death with the elapse of time (1000 mg/kg i.v., 1 hr): 3
Number of death with the elapse of time (1000 mg/kg i.v., 3 hrs): 0
Number of death with the elapse of time (1000 mg/kg i.v., 6 hrs): 0
Number of death with the elapse of time (1000 mg/kg i.v., 24 hrs): 0
Number of death with the elapse of time (1000 mg/kg i.v., 2 days): 0
Number of death with the elapse of time (1000 mg/kg i.v., 3 days): 0
Number of death with the elapse of time (1000 mg/kg i.v., 4 days): 0
Number of death with the elapse of time (1000 mg/kg i.v., 5 days): 0
Number of death with the elapse of time (1000 mg/kg i.v., 6 days): 0
Number of death with the elapse of time (1000 mg/kg i.v., 7 days): 0
Number of death with the elapse of time (2000 mg/kg i.v., 1 hr): 3
Number of death with the elapse of time (2000 mg/kg i.v., 3 hrs): 0
Number of death with the elapse of time (2000 mg/kg i.v., 6 hrs): 0
Number of death with the elapse of time (2000 mg/kg i.v., 24 hrs): 0
Number of death with the elapse of time (2000 mg/kg i.v., 2 days): 0
Number of death with the elapse of time (2000 mg/kg i.v., 3 days): 0
Number of death with the elapse of time (2000 mg/kg i.v., 4 days): 0
Number of death with the elapse of time (2000 mg/kg i.v., 5 days): 0
Number of death with the elapse of time (2000 mg/kg i.v., 6 days): 0
Number of death with the elapse of time (2000 mg/kg i.v., 7 days): 0

CC(=O)N[C@H]1[C@H]([C@H](O)[C@H](O)CO)OC(O)(C(=O)[O-])C[C@@H]1O.[Li+] (stereo partly shown) [Lithium N-acetylneuraminate]
Final death rate (500 mg/kg i.v.): 0/3
Number of death with the elapse of time (500 mg/kg i.v., 1 hr): 0
Number of death with the elapse of time (500 mg/kg i.v., 3 hrs): 0
Number of death with the elapse of time (500 mg/kg i.v., 6 hrs): 0
Number of death with the elapse of time (500 mg/kg i.v., 24 hrs): 0
Number of death with the elapse of time (500 mg/kg i.v., 2 days): 0
Number of death with the elapse of time (500 mg/kg i.v., 3 days): 0
Number of death with the elapse of time (500 mg/kg i.v., 4 days): 0
Number of death with the elapse of time (500 mg/kg i.v., 5 days): 0
Number of death with the elapse of time (500 mg/kg i.v., 6 days): 0
Number of death with the elapse of time (500 mg/kg i.v., 7 days): 0
Final death rate (1000 mg/kg i.v.): 0/3
Number of death with the elapse of time (1000 mg/kg i.v., 1 hr): 0
Number of death with the elapse of time (1000 mg/kg i.v., 3 hrs): 0
Number of death with the elapse of time (1000 mg/kg i.v., 6 hrs): 0
Number of death with the elapse of time (1000 mg/kg i.v., 24 hrs): 0
Number of death with the elapse of time (1000 mg/kg i.v., 2 days): 0
Number of death with the elapse of time (1000 mg/kg i.v., 3 days): 0
Number of death with the elapse of time (1000 mg/kg i.v., 4 days): 0
Number of death with the elapse of time (1000 mg/kg i.v., 5 days): 0
Number of death with the elapse of time (1000 mg/kg i.v., 6 days): 0
Number of death with the elapse of time (1000 mg/kg i.v., 7 days): 0
Final death rate (2000 mg/kg i.v.): 0/3
Number of death with the elapse of time (2000 mg/kg i.v., 1 hr): 0
Number of death with the elapse of time (2000 mg/kg i.v., 3 hrs): 0
Number of death with the elapse of time (2000 mg/kg i.v., 6 hrs): 0
Number of death with the elapse of time (2000 mg/kg i.v., 24 hrs): 0
Number of death with the elapse of time (2000 mg/kg i.v., 2 days): 0
Number of death with the elapse of time (2000 mg/kg i.v., 3 days): 0
Number of death with the elapse of time (2000 mg/kg i.v., 4 days): 0
Number of death with the elapse of time (2000 mg/kg i.v., 5 days): 0
Number of death with the elapse of time (2000 mg/kg i.v., 6 days): 0
Number of death with the elapse of time (2000 mg/kg i.v., 7 days): 0

CC(=O)N[C@H]1[C@H]([C@H](O)[C@H](O)CO)OC(O)(C(=O)O)C[C@@H]1O (stereo partly shown) [Magnesium N-acetylneuraminate]
Final death rate (500 mg/kg i.v.): 0/3
Number of death with the elapse of time (500 mg/kg i.v., 1 hr): 0
Number of death with the elapse of time (500 mg/kg i.v., 3 hrs): 0
Number of death with the elapse of time (500 mg/kg i.v., 6 hrs): 0
Number of death with the elapse of time (500 mg/kg i.v., 24 hrs): 0
Number of death with the elapse of time (500 mg/kg i.v., 2 days): 0
Number of death with the elapse of time (500 mg/kg i.v., 3 days): 0
Number of death with the elapse of time (500 mg/kg i.v., 4 days): 0
Number of death with the elapse of time (500 mg/kg i.v., 5 days): 0
Number of death with the elapse of time (500 mg/kg i.v., 6 days): 0
Number of death with the elapse of time (500 mg/kg i.v., 7 days): 0

CC(=O)N[C@H]1[C@H]([C@H](O)[C@H](O)CO)OC(O)(C(=O)[O-])C[C@@H]1O.[K+] (stereo partly shown) [Potassium N-acetylneuraminate]
Final death rate (500 mg/kg i.v.): 0/3
Number of death with the elapse of time (500 mg/kg i.v., 1 hr): 0
Number of death with the elapse of time (500 mg/kg i.v., 3 hrs): 0
Number of death with the elapse of time (500 mg/kg i.v., 6 hrs): 0
Number of death with the elapse of time (500 mg/kg i.v., 24 hrs): 0
Number of death with the elapse of time (500 mg/kg i.v., 2 days): 0
Number of death with the elapse of time (500 mg/kg i.v., 3 days): 0
Number of death with the elapse of time (500 mg/kg i.v., 4 days): 0
Number of death with the elapse of time (500 mg/kg i.v., 5 days): 0
Number of death with the elapse of time (500 mg/kg i.v., 6 days): 0
Number of death with the elapse of time (500 mg/kg i.v., 7 days): 0
Final death rate (1000 mg/kg i.v.): 3/3
Number of death with the elapse of time (1000 mg/kg i.v., 1 hr): 3
Number of death with the elapse of time (1000 mg/kg i.v., 3 hrs): 0
Number of death with the elapse of time (1000 mg/kg i.v., 6 hrs): 0
Number of death with the elapse of time (1000 mg/kg i.v., 24 hrs): 0
Number of death with the elapse of time (1000 mg/kg i.v., 2 days): 0
Number of death with the elapse of time (1000 mg/kg i.v., 3 days): 0
Number of death with the elapse of time (1000 mg/kg i.v., 4 days): 0
Number of death with the elapse of time (1000 mg/kg i.v., 5 days): 0
Number of death with the elapse of time (1000 mg/kg i.v., 6 days): 0
Number of death with the elapse of time (1000 mg/kg i.v., 7 days): 0
Death (1000 mg/kg or 2000 mg/kg i.v.): all of the three mice died
Final death rate (2000 mg/kg i.v.): 3/3
Number of death with the elapse of time (2000 mg/kg i.v., 1 hr): 3
Number of death with the elapse of time (2000 mg/kg i.v., 3 hrs): 0
Number of death with the elapse of time (2000 mg/kg i.v., 6 hrs): 0
Number of death with the elapse of time (2000 mg/kg i.v., 24 hrs): 0
Number of death with the elapse of time (2000 mg/kg i.v., 2 days): 0
Number of death with the elapse of time (2000 mg/kg i.v., 3 days): 0
Number of death with the elapse of time (2000 mg/kg i.v., 4 days): 0
Number of death with the elapse of time (2000 mg/kg i.v., 5 days): 0
Number of death with the elapse of time (2000 mg/kg i.v., 6 days): 0
Number of death with the elapse of time (2000 mg/kg i.v., 7 days): 0
